Laboratory results published in patent publication US20240082409A1, “Modified peptide ligands for stable delivery of highly potent payloads to tumors: Method of making and using same” (priority 2020, published 2024).
Values joined by “and” are separate entries in the source; they are usually repeats but may differ in a detail not shown here. Equal entries are not always repeated. “Also recorded” adds a separate entry of the source. Numbered stars: 1 amine (or outer) side, 2 acyl side, 3 side chain; on linkers, the order of the positions; unused ones are H or OH. Bridge positions count the residues as written; N and C are the ends. Square brackets hold non-standard residues; d marks the D form. Peptide text beside a SMILES is read from it. I, II: the chains in the order shown. * marks the point of attachment. X1 = O=C([C@@H](CCCCn1nnc2c1-c1ccccc1N([*:3])Cc1ccccc1-2)N[*:1])[*:2]; Dolaproine = CO[C@@H]([C@@H]1CCCN1)[C@@H](C)C(=O)O; X3 = O=C(CCC(=O)[*:1])NCCOCCOCCOCCC(=O)[*:2]; Dil = CC[C@H](C)[C@H](NC)[C@@H](CC(=O)O)OC; PABC = O=C(OCc1ccc(N[*:1])cc1)[*:2]; X2 = C[C@@H](N*)[C@@H](O)c1ccccc1; d3Pal = N[C@H](Cc1cccnc1)C(=O)O; Cit = NC(=O)NCCC[C@H](N)C(=O)O; pGlu = O=C1CC[C@@H](C(=O)O)N1; NMeV = CN[C@H](C(=O)O)C(C)C

How the values were obtained:
[1] = In-vitro potency of LHRH-based drug conjugates (summary statement); details: cell line not stated
[2] = Animal weight, hematology and normal organ histology in treated SCID mice; type: in vivo; details: for effect on animal weight: single i.v. injection 0.5 μmol/kg, SCID mice bearing HCC1806
Excerpt: FIG. 4B depicts animal weight in female SCID mice bearing HCC1806 TNBC CDX during treatment with saline; OTS-P22 or MMAE at a single i.v. injection of 0.5 μmol/kg on day 0 (arrow). […] are presented as mean±standard error of 10 mice per group.
FIG. 5A depict hematology parameters of saline- and OTS-P22 treated SCID mice bearing HCC1806 TNBC xenografts (n=10) as described in FIG. 4A and into in accordance with the preferred embodiment of the present invention;
FIG. 5B depict representative hematoxylin-eosin staining slides of normal organs from saline- and OTS-P22 treated SCID mice bearing HCC1806 TNBC xenografts as described in FIG. 4A and into in accordance with the preferred embodiment of the present invention;

HCC1806 TNBC CDX = test: Tumor growth of HCC1806 xenografts in female SCID mice; type: in vivo
Description: FIG. 4A depicts tumor volume in female SCID mice bearing HCC1806 TNBC CDX during treatment with saline; OTS-P22 or MMAE at a single i.v. injection of 0.5 μmol/kg on day 0 (arrow). Tumor volume values in mm^3 are presented as mean±standard error of 10 mice per group. Statistical analysis was performed using ANOVA followed by Tukey's multiple comparison test. ***<0.001, **<0.01, *<0.05 were significant.

HCC1806 TNBC cell line = test: MTS proliferation (viability) assay, HCC1806; type: cell-based, human
Description: (§1) FIG. 2A depicts the viability of HCC1806 and BT-549 TNBC cell lines as well as normal 3T3 mouse fibroblasts in presence of peptide drug conjugate OTS-P22 at increasing concentrations (Log 0.165-100 nM). Cells were plated at 10,000 cells/well on 96-well plates in RPMI or DMEM medium (pH 7.4) with 10% FBS or 10% BCS and after attachment they were washed and incubated with OTS-P22 in complete medium without antibiotics for 3 hours. After 3 hours, cells were washed and then incubated in complete medium without antibiotics for an additional 93 hours. At the end of the incubation period cells were washed and cell viability was measured using MTS assay according to the manufacturer's instructions (Promega, Madison, WI). Data shown are percentage mean value and standard error of triplicate measurements. Differences between mean values were evaluated by one-way ANOVA followed by Tukey's honestly significant difference procedure. **<0.01 were highly significant.

[3] = In-vitro stability in human plasma (RP-HPLC/mass spectrometry); type: in vitro ADME
Description: (§2) FIGS. 7A, 7B, 7C and 7D depicts the in-vitro stability of OTS-P23 in human plasma at 0, 2, 8 and 24 hours incubation times respectively in accordance with a preferred embodiment of the present invention. OTS-P23 is incubated at 100 μg/100 μl in 80% plasma from human or for 0, 2, 8 or 24 hours. Solutions are then centrifuged using Amicon centrifugal devices (cut-off 10 KDa) and 20 μl of the lower molecular weight fractions are analyzed by RP-HPLC/mass spectrometry. […] A minor peak (2.26%) was detected with a molecular weight of 2240.3 Dalton (metabolite).
as §2, with “FIGS. 13A, 13B, 13C” for “FIGS. 7A, 7B, 7C”, “and 13D” for “and 7D”, “of OTS-P28” for “of OTS-P23”

[4] = system: caspase activity in HCC1806 cells; details: 100 nM, 48 hours
Description: At the end of the incubation, cells were washed three times, lyzed and proteins quantified using Bradford reagents. Apoptosis assay was performed using 100 μg proteins according to ApoTarget Caspase Colorimetric Protease Assay Sampler Kit instructions (Invitrogen, Carlsbad, CA).

[5] = system: normal 3T3 mouse fibroblasts; details: 0.165-100 nM, 3 hours exposure, then 93 hours, MTS
Description: as §1

In the case of “Glp-His-Trp-DSer-Tyr-DLys[-dPEG5-Val-Cit-PABC-MMAE]-Leu-Arg-Pro-NHEt [OTS-P23b]”, the “in-vitro potency (in words)” value [1] is reported as “higher potency at low nanomolar concentrations”.

In the case of `CC[C@H](C)[C@@H]([C@@H](CC(=O)N1CCC[C@H]1[C@H](OC)[C@@H](C)C(=O)N[C@H](C)[C@@H](O)c1ccccc1)OC)N(C)C(=O)[C@@H](NC(=O)[C@@H](NC)C(C)C)C(C)C` [MMAE, monomethyl auristatin E, reference compound] (H-[NMeV]V[Dil][Dolaproine]-X2), the “effect on animal weight” value [2] is reported as “Neither treatment with OTS-P22 or MMAE affected animal weight” and the “effect on tumor growth (in words)” value (HCC1806 TNBC CDX; single i.v. injection 0.5 μmol/kg, end of 21 days study) is reported as “did not show any significant tumor growth inhibition; also recorded: no significant effect”.

For “Glp-His-DPal-Ser-Tyr-DCys[Val-Cit-PABC-MMAE]-Leu-Arg-Pro-DAla-NH2 [OTS-P26]”, the “in-vitro potency (in words)” value [1] was “higher potency at low nanomolar concentrations” and the “effect on viability of HCC1806 TNBC cells (in words)” value (HCC1806 TNBC cell line; MTS proliferation assay) was “dose-dependent manner”.

In the case of “Glp-His-DPal-Ser-Tyr-DLys[dPEG8-Val-Cit-PABC-MMAE]-Leu-Arg-Pro-DAla-NH2 [OTS-P23]”, the “in-vitro potency (in words)” value [1] is reported as “higher potency at low nanomolar concentrations”.

In the case of “Glp-His-DPal-Ser-Tyr-DCys[dPEG8-Val-Cit-PABC-MMAE]-Leu-Arg-Pro-DAla-NH2 [OTS-P28]”, the “in-vitro potency (in words)” value [1] is reported as “higher potency at low nanomolar concentrations”, the “anti-proliferative activity in-vitro on HCC1806 TNBC cell line (in words)” value (HCC1806 TNBC cell line) is reported as “low nanomolar concentrations” and the “stability in human plasma (in words)” value ([3]; human plasma) is reported as “highly stable”.

In the case of “Glp-DHis-Trp-DSer-Tyr-DLys[Glut-Val-Cit-PABC-MMAE]-Leu-Arg-Pro-DAla-NH2 [OTS-P31]”, the “in-vitro potency (in words)” value [1] is reported as “higher potency at low nanomolar concentrations”.

With `CC[C@H](C)[C@@H]([C@@H](CC(=O)N1CCC[C@H]1[C@H](OC)[C@@H](C)C(=O)N[C@H](C)[C@@H](O)c1ccccc1)OC)N(C)C(=O)[C@@H](NC(=O)[C@H](C(C)C)N(C)C(=O)OCc1ccc(NC(=O)[C@H](CCCNC(N)=O)NC(=O)[C@@H](NC(=O)CCOCCOCCOCCNC(=O)CCC(=O)N2Cc3ccccc3-c3nnn(CCCC[C@@H](NC(=O)[C@H](Cc4ccc(O)cc4)NC(=O)[C@H](CO)NC(=O)[C@@H](Cc4cccnc4)NC(=O)[C@H](Cc4c[nH]cn4)NC(=O)[C@@H]4CCC(=O)N4)C(=O)N[C@@H](CC(C)C)C(=O)N[C@@H](CCCNC(=N)N)C(=O)N4CCC[C@H]4C(=O)N[C@H](C)C(N)=O)c3-c3ccccc32)C(C)C)cc1)C(C)C` [OTS-P22, Glp-His-DPal-Ser-Tyr-DLys[dPEG3-Val-Cit-PABC-MMAE]-Leu-Arg-Pro-DAla-NH2] (I: [pGlu]H[d3Pal]SY[X1]LRP[dA]-NH2 / II: V[Cit][PABC][NMeV]V[Dil][Dolaproine]-X2; linker I:6-II:N via X3) the “in-vitro potency (in words)” value [1] was “higher potency at low nanomolar concentrations”, the “increase of caspase activity as compared to saline-treated cells” value [4] was 1.5 fold and the effect on hematology ([2]; SCID mice bearing HCC1806 xenografts) was “No signifcant effect”. For the same compound, the “effect on normal tissue histology” value ([2]; SCID mice bearing HCC1806 xenografts, hematoxylin-eosin) was “No signifcant effect”, the “effect on animal weight” value [2] was “No signifcant effect; also recorded: Neither treatment with OTS-P22 or MMAE affected animal weight” and the “minor peak (metabolite, 2240.3 Dalton)” value ([3]; 80% human plasma, 8 hours incubation) was 2.26%. For the same compound, the conjugate still intact ([3]; 80% human plasma, 8 hours incubation, 100 μg/100 μl) was 97.74%, the remaining at 8 h, 100 μg/100 μl ([3]; 80% human plasma, 8 hours incubation, 100 μg/100 μl, read-out: conjugate still intact) was 97.7% and the “potency relative to AEZS-108 in term of in-vivo tumor growth inhibition of HCC1806 xenografts” value (HCC1806 TNBC CDX; compared with first generation conjugate AEZS-108) was “at least 16 times”. The partial response (HCC1806 TNBC CDX; single i.v. 0.5 μmol/kg, 21 days, 80.5% in 2/10 mice, 88.5% in 1/10 mice) was 80.5% and 88.5%, the tumor growth inhibition (HCC1806 TNBC CDX; single i.v. injection 0.5 μmol/kg (1.435 mg/kg), 21 days post-treatment, SCID mice) was 100% and the “mice showing complete response” value (HCC1806 TNBC CDX; single i.v. injection 0.5 μmol/kg, 21 days post-treatment, 10 mice per group) was 7/10. The “effect on viability of 3T3 normal fibroblasts” value [5] was “no effect”.
